Laboratory results as given in ChEMBL document CHEMBL5303304, “EUbOPEN Chemogenomics Library - IncuCyte” (2023).

Legend:
Format in all cases: toxicity, cell-based
[1] = tested on: HEK-293T; assay: Incucyte cell viability with HEK293T; details: human, 10 µM, compound concentration 10 uM
[2] = tested on: Fibroblast; assay: Incucyte cell viability with human fibroblast; details: 10 µM, compound concentration 10 uM
[3] = tested on: U2OS; assay: Incucyte cell viability with U2OS; details: human, 10 µM, compound concentration 10 uM
Further: unitless GR value; below 1 slowed growth and below 0 cell loss.

SMILES	Growth Rate ([1]; 6 h, replicate number 1)	Growth Rate ([1]; 6 h, replicate number 2)	Growth Rate ([1]; 12 h, replicate number 1)	Growth Rate ([1]; 12 h, replicate number 2)	Growth Rate ([1]; 18 h, replicate number 1)	Growth Rate ([1]; 18 h, replicate number 2)	Growth Rate ([1]; 24 h, replicate number 2)	Growth Rate ([2]; 0 h, replicate number 1)	Growth Rate ([2]; 0 h, replicate number 2)	Growth Rate ([3]; 6 h, replicate number 1)	Growth Rate ([3]; 6 h, replicate number 2)	Growth Rate ([3]; 12 h, replicate number 1)	Growth Rate ([3]; 12 h, replicate number 2)	Growth Rate ([3]; 18 h, replicate number 1)	Growth Rate ([3]; 24 h, replicate number 2)	Growth Rate ([1]; 24 h, replicate number 1)	Growth Rate ([2]; 6 h, replicate number 2)	Growth Rate ([2]; 12 h, replicate number 2)	Growth Rate ([2]; 18 h, replicate number 2)	Growth Rate ([2]; 24 h, replicate number 2)	further results
COc1cc2ncnc(Nc3cccc(O)c3)c2cc1OC	0.14	0.13	0.56	0.71	0.96	0.75	0.77	-1	0.07	0.98	0.55	0.83	0.75	0.88	0.84	–	–	–	–	–	Growth Rate ([3]; 0 h, replicate number 1): -0.82; Growth Rate ([3]; 18 h, replicate number 2): 0.69
Nc1ncnc2c1c(COc1cccc(Cl)c1)nn2C1CCOCC1	0.75	0.59	–	0.61	0.83	0.5	0.37	–	-0.61	0.51	–	0.63	–	0.81	–	0.79	0.47	0.6	0.74	0.92	Growth Rate ([2]; 6 h, replicate number 1): 0.82; Growth Rate ([2]; 12 h, replicate number 1): 0.9; Growth Rate ([3]; 24 h, replicate number 1): 0.83
CNc1nc(Nc2ccc(C(=O)N3CCOCC3)cc2OC)ncc1Cl	0.75	0.81	–	–	0.99	0.96	0.96	-0.99	–	-0.99	–	–	–	–	–	0.92	0.67	0.72	0.63	0.99	–
NCC1CCC(CNc2nc(NCc3ccccc3OC(F)(F)F)ncc2[N+](=O)[O-])CC1 (configuration not stated)	-0.6	-0.49	-0.36	-0.27	-0.04	-0.01	0.1	-0.85	–	0.45	0.71	0.44	0.59	0.69	0.59	0.09	0.74	0.57	0.35	0.35	Growth Rate ([2]; 6 h, replicate number 1): 0.48; Growth Rate ([2]; 12 h, replicate number 1): 0.28; Growth Rate ([2]; 18 h, replicate number 1): -0.03; Growth Rate ([2]; 24 h, replicate number 1): 0.04; Growth Rate ([3]; 18 h, replicate number 2): 0.63; Growth Rate ([3]; 24 h, replicate number 1): 0.84
COC[C@@H](C)N[C@H]1CC[C@H](Nc2cc(-c3cccc(NCC4(C#N)CCOCC4)n3)c(Cl)cn2)CC1	-0.07	–	0.2	0.18	0.22	0.24	0.35	–	-1	0.79	0.56	0.88	0.62	0.59	0.68	0.27	-0.13	-0.06	-0.22	-0.12	Growth Rate ([2]; 6 h, replicate number 1): 0.06; Growth Rate ([2]; 12 h, replicate number 1): -0.08; Growth Rate ([2]; 18 h, replicate number 1): -0.12; Growth Rate ([2]; 24 h, replicate number 1): -0.09; Growth Rate ([3]; 0 h, replicate number 2): 0.56; Growth Rate ([3]; 18 h, replicate number 2): 0.71; Growth Rate ([3]; 24 h, replicate number 1): 0.79
C=CC(=O)Nc1cccc(C(=O)Nc2ccc(Nc3cc(-c4c(-c5ccc(F)cc5)nc(SC)n4C)ccn3)cc2)c1	0.54	0.39	0.55	0.34	0.47	0.46	–	-0.95	0.71	–	–	–	–	–	0.97	0.57	–	–	–	–	–
